Values after ≈ are worked out from the molar mass of the structure shown.
Columns and labels:
[1] = test system: SKM-1; assay: Cytotoxicity against human SKM1 cells incubated for 48 hrs by SRB assay; type: functional, cell-based; conditions: SKM-1, 48 h
[2] = test system: U-937; assay: Cytotoxicity against human U937 cells incubated for 48 hrs by SRB assay; type: functional, cell-based; conditions: U-937, 48 h
[3] = test system: HCC 2998; assay: Growth inhibition of human HCC2998 cells incubated for 48 hrs by SRB assay; type: functional; conditions: HCC 2998, 48 h
[4] = test system: K562; assay: Growth inhibition of human K562 cells incubated for 48 hrs by SRB assay; type: functional; conditions: K562, 48 h
[5] = test system: SF-539; assay: Growth inhibition of human SF539 cells incubated for 48 hrs by SRB assay; type: functional; conditions: SF-539, 48 h
[6] = test system: HL-60; assay: Growth inhibition of human HL60 cells incubated for 48 hrs by SRB assay; type: functional; conditions: HL-60, 48 h

GI50 [3] | GI50 [4] | GI50 [6] | Structure (SMILES) | IC50 [1] | IC50 [2] | GI50 [5]
– | – | – | C=C1C[C@@H]2C/C=C/C(=O)C/C(C)=C\C=C\C(=O)O[C@H]([C@H](O)NC(=O)/C=C\C=C\C)C/C(C)=C/[C@H](C1)O2 [ZAMPANOLIDE] | 1.1 to 2.9 nM | 1.1 to 2.9 nM | –
0.025 to 0.099 µg/mL (≈ 0.065 to 0.257 µM) | 0.025 to 0.099 µg/mL (≈ 0.065 to 0.257 µM) | 0.025 to 0.099 µg/mL (≈ 0.065 to 0.257 µM) | C=C1C[C@@H]2C/C=C/C(=O)C/C(C)=C\C=C\C(=O)O[C@H](C=O)C/C(C)=C/[C@H](C1)O2 | – | – | 0.025 to 0.099 µg/mL (≈ 0.065 to 0.257 µM)

Reference: ChEMBL document CHEMBL4251592, “Recent advances in microtubule-stabilizing agents” (Eur J Med Chem, 2018)
